System: 233499-124-R-J3-PDC complex spheroid viability, % test/control
Test: Anticancer human tumor 233499-124-R-J3-PDC patient-derived colon adenocarcinoma cell line growth inhibition
Conditions: for IC50: curve of first compound; for viability, T/C: stronger effect = lower value
Text: Multicellular complex tumor spheroid response to LSD1 Inhibitor Iadademstat in combination with a variety of drugs and investigational agents in selected tumor cell lines
The current study was undertaken to assess response to LSD1 inhibitors in combination with standard-of-care drugs and investigational agents in solid tumor complex spheroid models as well as in the K-562 leukemia. Complex spheroids include a stromal component modeled by human endothelial cells (HUVEC) and fibroblasts modeled by human mesenchymal stem cells (MSCs). The concentration ranges selected for each drug and investigational agent were based upon clinically achievable concentrations if the clinical Cmax of the agent was known.
Compounds. The drugs and investigational agents used in this study are listed on Table 1. All of the agents used, including staurosporine (NSC755774) and gemcitabine (NSC613327), were obtained from the Developmental Therapeutics Program, NCI. FDA-approved anticancer drugs are available from the NCI at http://dtp.nci.nih.gov/branches/dscb/oncology_drugset_explanation.html. Drugs and investigational agents were >95% pure by proton nuclear magnetic resonance (NMR) and liquid chromatography/mass spectrometry (LC/MS). Stock solutions were prepared at 400x in DMSO, stored at -70 degrees C, and diluted in fresh medium prior to their use. The final concentration of DMSO in cell culture wells never exceeded 0.25% (v/v). The FDA-approved anticancer drug set is available from the Developmental Therapeutics Program at https://dtp.cancer.gov/organization/dscb/obtaining/available_plates.htm. All drugs and investigational agents were tested over a range starting from a high concentration at or near the clinical Cmax and decreasing in half-log increments. If the clinical Cmax for an agent had not been determined, the highest concentration tested was 10 microM.
Cell Lines. The patient-derived cancer cell (PDC) lines: 292921-168-R-J2-PDC, K24384-001-R-PDC, and 521955-158-R2-J5-PDC pancreatic carcinomas, 556581-035-R-J1 ovarian carcinoma, 324938-238-R-J1-PDC, 855422-203-R-J1-PDC and 883617-216-R-J1-PDC urothelial bladder carcinomas, 743489-274-T-PDC renal cell carcinoma, 138582-R-J1 Merkel cell tumor, K60290-347-R-J1 and K57222-313-R-J1-PDC glioblastomas, 653999-131-R-J2-PDC, LG0703-F948-PDC, and 349418-098-R-PDC non-small cell lung carcinomas, 885512-296-R-J2-PDC, 171881-019-R-J1-PDC breast carcinomas and 186277-243-T-J2-PDC and 233499-124-R-J2-PDC colon carcinomas were obtained from the NCI Patient-Derived Models Repository (PDMR, https://pdmr.cancer.gov). The established cell lines NCI/ADR-RES (RRID:CVCL_14520 and OVCAR-5 (RRID:CVCL_1628) ovarian carcinomas, 786-O (RRID:CVCL_1051) and A498 (RRID:CVCL_A498) renal cell carcinoma, NCI-H211 (ATCC, cat. CRL-5824; RRID:CVCL_1529), NCI-H196 (ATCC, cat. CRL-5823, RRID:CVCL_1509), SW 1271 (ATCC, cat. CRL-2177, RRID:CVCL_1716) and NCI-H1876 (ATCC, cat. CRL-5902, RRID:CVCL_1503) small cell lung carcinomas, MDA-MB-231 (RRID:CVCL_0062) and MDA-MB-468 (RRID:CVCL_0419)breast carcinomas (10-12). Pooled donor human umbilical vein endothelial cells (HUVEC, Lonza, cat. CC-2519) and human mesenchymal stem cells (hMSC, Lonza, cat. PT-2501) were purchased from Lonza (Walkersville, MD).
Cell Culture. All cells were maintained in an incubator at 37 degrees C and 5% CO2 with 95% humidity. The PDC lines were cultured according to standard operating procedures established by the NCI PDMR (https://pdmr.cancer.gov). Briefly all PDCs were thawed and cultured in Matrigel-coated flasks prepared with a working solution of 1X Ham's F-12 nutrient mix, without supplementation (Invitrogen, Waltham, MA, cat. 11765054), 100 U/mL penicillin-streptomycin (Invitrogen, cat. 15140122), and 2.5% Matrigel (Corning Inc., Corning, NY, cat. 354248) for the first three passages. […]

[1] = second compound 0.1 µM, first compound 0.00316 µM
[2] = second compound 0.1 µM, first compound 0.01 µM
[3] = second compound 0.1 µM, first compound 0.0316 µM
[4] = second compound 0.1 µM, first compound 0.1 µM
[5] = second compound 0.316 µM, first compound 0.00316 µM
[6] = second compound 0.316 µM, first compound 0.01 µM
[7] = second compound 0.316 µM, first compound 0.0316 µM
[8] = second compound 0.316 µM, first compound 0.1 µM
[9] = second compound 1 µM, first compound 0.00316 µM
[10] = second compound 1 µM, first compound 0.01 µM
[11] = second compound 1 µM, first compound 0.0316 µM
[12] = second compound 1 µM, first compound 0.1 µM
[13] = second compound 3.16 µM, first compound 0.00316 µM
[14] = second compound 3.16 µM, first compound 0.01 µM
[15] = second compound 3.16 µM, first compound 0.0316 µM
[16] = second compound 3.16 µM, first compound 0.1 µM
[17] = second compound 10 µM, first compound 0.00316 µM
[18] = second compound 10 µM, first compound 0.01 µM
[19] = second compound 10 µM, first compound 0.0316 µM
[20] = second compound 10 µM, first compound 0.1 µM
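Further: spheroids exposed to agents for one week before readout.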

SMILES: CC[C@@]1(O)C(=O)OCc2c1cc1n(c2=O)Cc2cc3c(CN(C)C)c(O)ccc3nc2-1 + NC1CC1c1ccc(-c2cccc(O)c2)cc1
- IC50 (second compound 0.1 µM): > 100 nM
- IC50 (second compound 0.316 µM): > 100 nM
- IC50 (second compound 1 µM): > 100 nM
- IC50 (second compound 3.16 µM): > 100 nM
- IC50 (second compound 10 µM): > 100 nM
- viability, T/C (second compound 0.1 µM, first compound 0.000316 µM): 109%
- viability, T/C (second compound 0.1 µM, first compound 0.001 µM): 99%
- viability, T/C [1]: 81.8%
- viability, T/C [2]: 52.1%
- viability, T/C [3]: 73.5%
- viability, T/C [4]: 115%
- viability, T/C (second compound 0.316 µM, first compound 0.000316 µM): 96.6%
- viability, T/C (second compound 0.316 µM, first compound 0.001 µM): 90%
- viability, T/C [5]: 72.3%
- viability, T/C [6]: 71.4%
- viability, T/C [7]: 79.5%
- viability, T/C [8]: 107%
- viability, T/C (second compound 1 µM, first compound 0.000316 µM): 86.7%
- viability, T/C (second compound 1 µM, first compound 0.001 µM): 94%
- viability, T/C [9]: 62.1%
- viability, T/C [10]: 67.9%
- viability, T/C [11]: 57.3%
- viability, T/C [12]: 104%
- viability, T/C (second compound 3.16 µM, first compound 0.000316 µM): 89.3%
- viability, T/C (second compound 3.16 µM, first compound 0.001 µM): 96.3%
- viability, T/C [13]: 63.6%
- viability, T/C [14]: 68.3%
- viability, T/C [15]: 70%
- viability, T/C [16]: 94.1%
- viability, T/C (second compound 10 µM, first compound 0.000316 µM): 77.7%
- viability, T/C (second compound 10 µM, first compound 0.001 µM): 67.9%
- viability, T/C [17]: 53.8%
- viability, T/C [18]: 53.6%
- viability, T/C [19]: 58.7%
- viability, T/C [20]: 93.5%

SMILES: COc1cc(C2c3cc4c(cc3C(OC3OC5COC(C)OC5C(O)C3O)C3COC(=O)C23)OCO4)cc(OC)c1O (stereo not given) + NC1CC1c1ccc(-c2cccc(O)c2)cc1
- IC50 (second compound 0.1 µM): 717 nM
- IC50 (second compound 0.316 µM): 1690 nM
- IC50 (second compound 1 µM): 1540 nM
- IC50 (second compound 3.16 µM): 728 nM
- IC50 (second compound 10 µM): 209 nM
- viability, T/C (second compound 0.1 µM, first compound 0.00949 µM): 104%
- viability, T/C (second compound 0.1 µM, first compound 0.03 µM): 101%
- viability, T/C (second compound 0.1 µM, first compound 0.0949 µM): 86.5%
- viability, T/C (second compound 0.1 µM, first compound 0.3 µM): 57%
- viability, T/C (second compound 0.1 µM, first compound 0.949 µM): 51.9%
- viability, T/C (second compound 0.1 µM, first compound 3 µM): 41.5%
- viability, T/C (second compound 0.316 µM, first compound 0.00949 µM): 109%
- viability, T/C (second compound 0.316 µM, first compound 0.03 µM): 113%
- viability, T/C (second compound 0.316 µM, first compound 0.0949 µM): 94.8%
- viability, T/C (second compound 0.316 µM, first compound 0.3 µM): 73.4%
- viability, T/C (second compound 0.316 µM, first compound 0.949 µM): 51.5%
- viability, T/C (second compound 0.316 µM, first compound 3 µM): 47.8%
- viability, T/C (second compound 1 µM, first compound 0.00949 µM): 94.3%
- viability, T/C (second compound 1 µM, first compound 0.03 µM): 82.1%
- viability, T/C (second compound 1 µM, first compound 0.0949 µM): 73.3%
- viability, T/C (second compound 1 µM, first compound 0.3 µM): 60.6%
- viability, T/C (second compound 1 µM, first compound 0.949 µM): 53.7%
- viability, T/C (second compound 1 µM, first compound 3 µM): 45.5%
- viability, T/C (second compound 3.16 µM, first compound 0.00949 µM): 91.1%
- viability, T/C (second compound 3.16 µM, first compound 0.03 µM): 86.2%
- viability, T/C (second compound 3.16 µM, first compound 0.0949 µM): 73%
- viability, T/C (second compound 3.16 µM, first compound 0.3 µM): 62.1%
- viability, T/C (second compound 3.16 µM, first compound 0.949 µM): 42%
- viability, T/C (second compound 3.16 µM, first compound 3 µM): 46.6%
- viability, T/C (second compound 10 µM, first compound 0.00949 µM): 71.4%
- viability, T/C (second compound 10 µM, first compound 0.03 µM): 72.4%
- viability, T/C (second compound 10 µM, first compound 0.0949 µM): 63.1%
- viability, T/C (second compound 10 µM, first compound 0.3 µM): 44%
- viability, T/C (second compound 10 µM, first compound 0.949 µM): 46.5%
- viability, T/C (second compound 10 µM, first compound 3 µM): 40.6%

SMILES: Nc1ncn(C2CC(O)C(CO)O2)c(=O)n1 (stereo not given) + NC1CC1c1ccc(-c2cccc(O)c2)cc1
- IC50 (second compound 0.1 µM): > 1000 nM
- IC50 (second compound 0.316 µM): > 1000 nM
- IC50 (second compound 1 µM): > 1000 nM
- IC50 (second compound 3.16 µM): > 1000 nM
- IC50 (second compound 10 µM): > 1000 nM
- viability, T/C [1]: 101%
- viability, T/C [2]: 98.9%
- viability, T/C [3]: 86.8%
- viability, T/C [4]: 81.2%
- viability, T/C (second compound 0.1 µM, first compound 0.316 µM): 89.6%
- viability, T/C (second compound 0.1 µM, first compound 1 µM): 108%
- viability, T/C [5]: 120%
- viability, T/C [6]: 99.5%
- viability, T/C [7]: 92.2%
- viability, T/C [8]: 75%
- viability, T/C (second compound 0.316 µM, first compound 0.316 µM): 96.9%
- viability, T/C (second compound 0.316 µM, first compound 1 µM): 87.6%
- viability, T/C [9]: 104%
- viability, T/C [10]: 89.9%
- viability, T/C [11]: 72.9%
- viability, T/C [12]: 83.7%
- viability, T/C (second compound 1 µM, first compound 0.316 µM): 69.1%
- viability, T/C (second compound 1 µM, first compound 1 µM): 88.4%
- viability, T/C [13]: 82.5%
- viability, T/C [14]: 93.2%
- viability, T/C [15]: 80.4%
- viability, T/C [16]: 74.4%
- viability, T/C (second compound 3.16 µM, first compound 0.316 µM): 74.6%
- viability, T/C (second compound 3.16 µM, first compound 1 µM): 92%
- viability, T/C [17]: 80.5%
- viability, T/C [18]: 83.9%
- viability, T/C [19]: 80.5%
- viability, T/C [20]: 60.9%
- viability, T/C (second compound 10 µM, first compound 0.316 µM): 58.1%
- viability, T/C (second compound 10 µM, first compound 1 µM): 90.9%

From PubChem BioAssay AID1918930 (Molecular Pharmacology Branch, DTP, NCI, 2023)
